Experimental data: patent publication US20250270648A1, “MOLECULAR SIGNATURE FOR ASSESSING THE RESPONSIVENESS OF CANCER TO MITOCHONDRIA-TARGETED ANTIOXIDANTS” (UNIVERSITÉ CATHOLIQUE DE LOUVAIN, priority 2021, published 2025)

What was measured:
[1] = tested on: MDA-MB-231 human breast cancer cells; assay: Mitochondrial potential, JC-10; assay type: cell-based; conditions: 48 h
Description: (§1) The mitochondrial potential (ΔΨ) was measured using JC-10 Mitochondrial Membrane Potential Assay Kit (Abcam®, #ab112134), according to manufacturer's recommendations. Briefly, MDA-MB-231 (10^4 cells/well), SkBr3 (10^4 cells/well), MDA-MB-436 (10^4 cells/well) or MCF10A (10^5 cells/well) cells were seeded in 96-well plates and treated for 48 h±MitoQ. Cells were then washed twice and incubated with JC-10 (1× solution) for 45 min. Fluorescence intensities were measured at 490/525 nm and […] using a SpectraMax i3 spectrophotometer equipped with a MiniMax imaging cytometer (Molecular Devices®).

[2] = tested on: SkBr3 human breast cancer cells; assay: Mitochondrial potential, JC-10; assay type: cell-based; conditions: indicated doses of MitoQ, 48 h
Description: as §1

[3] = tested on: MCF10A normal breast epithelial cells; assay: Mitochondrial potential, JC-10; assay type: cell-based, human; conditions: MitoQ 100 nM, 48 h
Description: as §1

[4] = tested on: MDA-MB-436 breast cancer cells; assay: Mitochondrial potential, JC-10; assay type: cell-based, human; conditions: MitoQ 100 nM, 48 h
Description: as §1

MDA-MB-231 cells [5] = assay: Clonogenic assay on soft agar; assay type: cell-based, human; conditions: MitoQ 250 nM
Description: (§2) For soft agar colony formation assays, 0.4% Seaplaque soft agar (Lonza®) was diluted with DMEM containing 10% FBS and was covered by a second 0.3% soft agar layer in which 500 MDA-MB-231 or SKBR3 cells were embedded. Complete DMEM Culture media ±MitoQ was added with 2× the final concentration. After 20 days, colonies were counted using an Axiovert™ 40 CFL microscope equipped with a MRC camera.

SkBr3 cells = assay: Clonogenic assay on soft agar; assay type: cell-based, human; conditions: MitoQ 250 nM
Description: as §2

[6] = tested on: MDA-MB-231 human breast cancer cells; assay: Metastatic take assay, tail vein injection of pretreated cells; assay type: in vivo, mouse; conditions: cells pretreated 6 h with 1 μM MitoQ
Description: For metastasis take assays, cancer cells were pretreated ±MitoQ for 6 h, and 10^6 viable cells were injected into the tail vein of five weeks-old female Rj:NMRI-Foxn1nu/nu mice (Janvier). After 4 weeks, mice were sacrificed and the lungs insufflated with 3 mL of Indian ink (15% in ddH2O). Mouse lungs were removed, washed with PBS and incubated overnight in Fekete's solution (700 mL/L 100% ethanol, 32 mL/L 37% formalin, 40 mL/L glacial acetic acid, diluted in ddH2O). The next morning, lungs were transferred to a 70% ethanol solution and were further examined under a Stemi 2000-C dissection stereomicroscope (Zeiss®) to count the number of metastasis per lung.

[7] = tested on: primary breast tumors of MMTV-PyMT mice; assay: RT-qPCR of primary breast tumors; assay type: in vivo; conditions: FEC + MitoQ 18 mg/kg daily oral; mouse transcripts; P<0.01; read-out: fold induction of SLC7A11, SERPINE1 and TXNRD1 (each independently)
Description: Total mRNA from MDA-MB-231, SkBr3 and MDA-MB-436 cells treated ±MitoQ for 48 h was extracted using the NucleoSpin RNA Kit (Macherey-Nagel®). Total mRNA from primary tumors was extracted with Tri reagent (Molecular Research Center®, Cat #TR118). mRNAs were quantified by the Qubit BR dsRNA assay kit (Thermo Fisher Scientific®), and mRNA integrity was evaluated on an Agilent® 2100 Bioanalyzer with the RNA 6000 nano kit (Agilent®). It was reverse transcribed in complementary DNA using the High-Capacity cDNA Reverse Transcription Kit (Applied Biosystems®, cat #4368814) according to manufacturer's protocol. Complementary DNA (500 ng) was amplified by real time quantitative PCR (RT-qPCR) using the low ROX SYBR Master Mix dTTP Blue (Eurogentec®) and primers listed in Table 5 and Table 6 on a ViiA 7 Real-Time PCR System (Thermo Fisher Scientific®). Gene expression was normalized to β-actin gene expression.
Female FVB/N-Tg(MMTV-PyMT)634Mul/J (MMTV-PyMT) mice that express the polyomavirus middle T antigen spontaneously develop orthotropic multifocal breast adenocarcinomas that spontaneously disseminate metastases to the lungs during mouse lifetime. […] They were sacrificed at 16 weeks-old, and the lungs insufflated with Indian ink for metastasis quantification as described above. […]

[8] = tested on: Human MDA-MB-231 breast cancer cells; assay: Cell viability, crystal violet; assay type: cell-based; conditions: increasing doses of cisplatin ±100 nM MitoQ, 48 h
Description: […] The solution was carefully removed and plates were washed twice with water. After drying protected by light, cells were resuspended in 50 μl DMSO and the plates were read with a Victor X4 plate reader (Perkin®).

MCF7 cells = assay: Migration towards 0.5% serum, chemotaxis chamber; assay type: cell-based, human; conditions: 0.1 μg/mL DXR + 100 nM MitoQ
Description: (§3) Previous to migration and invasion assays, cells were pretreated with the indicated amounts of drugs for 16 h, and left to recover for 6 h in full culture medium. Migration assays were performed in a NeuroProbe® standard 48-well chemotaxis chamber according to manufacturer's instructions. Briefly, the bottom chamber was filled with DMEM containing 0.5% serum as a chemo-attractant. Fifty thousand cells were seeded in the upper chamber in the same medium but without serum ±MitoQ where indicated, and allowed to migrate overnight through an 8-μm pore-size polycarbonate membrane. A similar stimulation protocol was used for invasion assays, with the difference of using Matrigel-coated transwells (Corning®). With MCF7 cells, membranes were previously incubated for 30 min with a solution of Vitronectin 10 μg/ml (Sigma-Aldrich®, #SRP3186). Migrated/invaded cells were fixed and stained with 100 μl of a 0.23% crystal violet solution (Sigma-Aldrich®, #C0775) for 10 min before counting on a SpectraMax™ i3 spectrophotometer equipped with a MiniMax imaging cytometer, using the SoftMax Pro software. Data were normalized to vehicle-treated cells (control).

MDA-MB-231 cells [9] = assay: Migration towards 0.5% serum, chemotaxis chamber; assay type: cell-based, human; conditions: indicated doses of cisplatin + 100 nM MitoQ
Description: as §3

4T1 cells = assay: Invasion, Matrigel-coated transwells; assay type: cell-based, mouse; conditions: 0.1 μg/mL DXR + 100 nM MitoQ
Description: as §3

**Q.** Which results are given for COC1=C(OC)C(=O)C(CCCCCCCCCC[P+](c2ccccc2)(c2ccccc2)c2ccccc2)=C(C)C1=O [MitoQ]?
**A.** mitochondrial potential (Δψ) ([1]; MitoQ 100 nM): decreased; Δψ, dose dependence ([1]; indicated doses of MitoQ): dose-dependent decreases; Δψ, dose dependence [2]: dose-dependent decreases; mitochondrial potential (Δψ) [3]: not affected; AT (FIG. 14D, mitochondrial potential) [4]: repressed; clonogenicity in suspension on soft agar (MDA-MB-231 cells [5]): completely abrogated; clonogenicity in suspension on soft agar (SkBr3 cells): completely abrogated; mice metastasis-free ([6]; at necropsy, four weeks): 36.4%; mice with <2 metastasis ([6]; at necropsy, four weeks): 27.2%; mice with >2 lung metastases ([6]; at necropsy, four weeks): 36.4%; metastasis developed vs mice that received vehicle-treated cells ([6]; four weeks after injection of 10^6 cells): significantly less; fold induction at 18 mg/kg [7]: ≥ 2; cancer cell killing activity, cisplatin combined with MitoQ [8]: did not interfere; DXR-stimulated cell migration (MCF7 cells): inhibited; breast cancer cell migration in the presence of cisplatin (MDA-MB-231 cells [9]): repressed; DXR-stimulated cell invasion (4T1 cells): inhibited
